In patent US9999614B2, “Combination for the prophylaxis and treatment of behavioural, mental, and cognitive disorders” (LTD “VALENTA-INTELLEKT”, priority 2012, dated 2018):

Assays:
[1] = test system: amnesia in mice, as caused by electroconvulsive shock (ECS); assay: Conditioned passive avoidance reflex (CPAR), amnesia caused by electroconvulsive shock (ECS); format: in vivo; conditions: for Latent time of entering into the dark chamber / Number of mice not entered into the dark chamber, % / Number of mice taught to CPAR: + ECS, i.p. once a day for 5 days, Melatonin 5 mg, Memantin 10 mg mono-use; for Number of mice taught to CPAR: count of mice, human doses converted to mice; for Effect on the amnestic action of ECS (in words): summary of Tables 1-2, p<0.05 for the compositions
Method: (§1) For this, the active substances Melatonin 3 mg/Memantin 10 mg, Melatonin 5 mg/Memantin 20 mg, Melatonin 10 mg/Memantin 20 mg were taken, and doses recommended for human beings were converted into doses adapted for mice according to the formula “(active substance/70(average weight of a human being))×7”. Then the compositions were dissolved in 5 mL of the solution and, according to the given formula, introduced to animals intraperitoneally once a day for 5 days.
The action of the compositions on learning and memory factors were studied on white non-linear male mice having a weight 20+/−4 g, using the conditioned passive avoidance reflex (CPAR) of electroconvulsive shock (ECS) (Ya. Buresh et al., 1991; K. M. Dyumaev et al., 1995).
Electroconvulsive shock (ECS) was used as the amnesic action, the electric current parameters were: 50 Hz, 50 mA, 0.3 s, which was applied to mice with the use of electrodes in the shape of clips fixed on auricles, transpineally, just after teaching CPAR (see, “Manual for Experimental (Pre-Clinical) Studies of New Pharmacological Substances”, 2000). Pseudo-electroconvulsive shock was caused to the animals by applying pineal electrodes for causing ECS without applying electric current. The mice were tested for maintaining CPAR in certain time intervals after ECS.
(§2) The CPAR test is the main model for evaluating substance influences on formation and replication of short-time memory in a normal condition and in an abnormal condition, i.e., induced amnesia. The CPAR is the most informative method among the methods that are used today for evaluating efficiency of substances with influence on the CNS of mammals (see, “Manual for Experimental (Pre-Clinical) Studies of New Pharmacological Substances”, 2000). The CPAR (conditioned passive avoidance reflex in a dark, light chamber) was taught to the mice on the basis of electrodermal response according to the method proposed by Cumin et al. (1982) with due regard to the recommendations given by Mondadori et al. (1990). The installation for mice, as produced by Lafayette Instrument Co., USA, was a black chamber with the electrode floor and a white plastic platform that was arranged on the floor in the center of the chamber. The mice, one by one, were put onto the plastic platform. The animals went/jumped down onto the electrode floor where they received an electric current shock, i.e., punishment. Electric current was supplied after the time when an animal stood on the floor with all its four legs. The natural response of the animals is to go back to the current-free or safe platform. After several minutes of teaching, 5 minutes on the average, mice developed CPAR and remained on the safe platform. Tests for memorizing CPAR were conducted in successive time intervals after amnesic action. In a case where an animal went/jumped down onto the platform within 1 minute, it was recorded as having retrograde amnesia of the passive avoidance skill. The compositions were studied in comparison with Melatonin 5 mg (mono-use) and Memantin 10 mg (mono-use), according to the above formula for adapting to animal models.

[2] = test system: amnesia caused by acute normobaric hypoxic hypoxia with hypercapnia; assay: Open-field method after acute normobaric hypoxic hypoxia with hypercapnia; format: in vivo, mice; conditions: i.p. once a day for 5 days, Melatonin 5 mg, Memantin 10 mg mono-use
Method: as §1
The antiamnestic action of the compositions was also carried out on an model of amnesia caused by acute normobaric hypoxic hypoxia with hypercapnia in a so-called hermetic chamber on white non-linear male mice having a weight of 20-24 Γ with the CPAR development in the animals according to the open-field method. After CPAR teaching the animals were put in the hermetic chamber for 16-18 minutes, depending on manifestation of hypoxia symptoms and weight. This model was reproduced by placing mice, one by one, in glass jars of equal volume that were hermetically sealed. With consumption of oxygen its concentration in the jar air and in the organism lowered and the quantity of carbon dioxide, on the contrary, raised. As the result, acute hypoxic hypoxia with hypercapnia developed in the animals. The animals of the control group were subjected to false hypoxia, that is, the mice were put in glass jars of equal volume that were not closed. The substances under study and the sodium chloride isotonic solution (control) were used in comparison with Melatonin 5 mg (mono-use) and Memantin 10 mg (mono-use) in accordance with the above formula for adapting to animal models by intraperitoneal introduction, before teaching the mice, once a day for 5 days.

[3] = test system: amnestic effect caused by mice swimming in cold water, simultaneously rotating wheel to the point of exhaustion; assay: CPAR, amnesia induced by swimming in cold water with wheel rotation to the point of exhaustion; format: in vivo; conditions: Melatonin 5 mg, Memantin 10 mg mono-use
Method: as §1, §2
The antiamnestic action of the compositions on the amnesia model induced by swimming of mice in cold water with wheel rotation to the point of exhaustion. Studies were conducted on white non-linear male mice having a weight of 20-24 g with developing CPAR in the animals as in the previous studies. The animals were put, one by one, into a container filled with water and equipped with a rotating wheel. After teaching CPAR, the mice swam in cold water, simultaneously rotating the wheel to the point of exhaustion. The CPAR maintenance was checked in successive time intervals. As false imitation of swimming in cold water, mice were put onto a pad consisting of wet cold wadding. The substances and an isotonic solution of sodium chloride (control) were studied in comparison with Melatonin 5 mg (mono-use) and Memantin 10 mg (mono-use), in accordance with the above formula for adapting to animal models, by intraperitoneal introduction before teaching mice, once a day for 5 days.

SMILES	Latent time of entering into the dark chamber ([1]; 1 day after teaching) [s]	Number of mice not entered into the dark chamber, % ([1]; 1 day after teaching) [%]	Latent time of entering into the dark chamber ([1]; 3 days after teaching) [s]	Number of mice not entered into the dark chamber, % ([1]; 3 days after teaching) [%]	Latent time of entering into the dark chamber ([1]; 7 days after teaching) [s]	Number of mice not entered into the dark chamber, % ([1]; 7 days after teaching) [%]	Latent time of entering into the dark chamber ([1]; 10 days after teaching) [s]	Number of mice not entered into the dark chamber, % ([1]; 10 days after teaching) [%]	Number of mice taught to CPAR [1]	Effect on the amnestic action of ECS (in words) [1]	Horizontal motion activity ([2]; 1st day after operation)	Inspection of holes ([2]; 1st day after operation)	Vertical motion activity ([2]; 1st day after operation)	Horizontal motion activity ([2]; 3rd day after operation)	Inspection of holes ([2]; 3rd day after operation)	Vertical motion activity ([2]; 3rd day after operation)	Horizontal motion activity ([2]; 7th day after operation)	Inspection of holes ([2]; 7th day after operation)	Vertical motion activity ([2]; 7th day after operation)	Horizontal motion activity ([2]; 10th day after operation)	other results
COc1ccc2[nH]cc(CCNC(C)=O)c2c1 [Melatonin, N-acetyl-5-methoxytriptamine]	108.3 ± 21.7	66.7	105.6 ± 17.4	58.3	103.3 ± 21.2	58.3	103.2 ± 20.6	33.3	9	changed the amnestic action	6.9 ± 2.3	1.7 ± 0.6	3.2 ± 1.2	8.2 ± 1.4	1.9 ± 0.8	3.5 ± 0.9	8.3 ± 2.8	2.4 ± 0.5	3.2 ± 1.3	8.1 ± 1.7	Inspection of holes ([2]; 10th day after operation): 2.6 ± 2.9; Vertical motion activity ([2]; 10th day after operation): 3.6 ± 2.3; Latent time of entering into the dark chamber ([3]; 1 day after teaching): 109.3 ± 9.8 s; Number of mice not entered into the dark chamber, % ([3]; 1 day after teaching): 61.5%; Latent time of entering into the dark chamber ([3]; 3 days after teaching): 105.4 ± 13.5 s; Number of mice not entered into the dark chamber, % ([3]; 3 days after teaching): 46.1%; Latent time of entering into the dark chamber ([3]; 7 days after teaching): 104.6 ± 15.1 s; Number of mice not entered into the dark chamber, % ([3]; 7 days after teaching): 38.5%; Latent time of entering into the dark chamber ([3]; 10 days after teaching): 100.9 ± 17.4 s; Number of mice not entered into the dark chamber, % ([3]; 10 days after teaching): 30.7%
CC12CC3CC(C)(C1)CC(N)(C3)C2 [Memantin]	104.6 ± 19.2	36.3	109.5 ± 22.1	54.5	110.1 ± 18.9	63.6	109.8 ± 21.1	63.6	8	changed the amnestic action	7.1 ± 2.7	2.1 ± 1.1	3.7 ± 1.9	8.9 ± 4.9	2.5 ± 1.1	3.3 ± 1.2	9.6 ± 3.4	3.0 ± 2.7	3.7 ± 1.8	11.3 ± 1.7	Inspection of holes ([2]; 10th day after operation): 3.2 ± 1.3; Vertical motion activity ([2]; 10th day after operation): 4.1 ± 2.5; Latent time of entering into the dark chamber ([3]; 1 day after teaching): 111.3 ± 22.3 s; Number of mice not entered into the dark chamber, % ([3]; 1 day after teaching): 41.6%; Latent time of entering into the dark chamber ([3]; 3 days after teaching): 115.9 ± 16.5 s; Number of mice not entered into the dark chamber, % ([3]; 3 days after teaching): 50%; Latent time of entering into the dark chamber ([3]; 7 days after teaching): 117.4 ± 28.1 s; Number of mice not entered into the dark chamber, % ([3]; 7 days after teaching): 66.6%; Latent time of entering into the dark chamber ([3]; 10 days after teaching): 118.0 ± 23.3 s; Number of mice not entered into the dark chamber, % ([3]; 10 days after teaching): 66.6%
